Assay results from the NIST ThermoML archive (doi:10.1016/j.jct.2019.04.021).
Numbers after ± are expanded uncertainties.

Conditions: 298 K; 101.33 kPa; Crystal; X-ray diffraction

mass density: 7060.5 ± 7.2 kg/m3
Compound: [O-2].[O-2].[O-2].[Pr+3].[Pr+3] [praseodymium oxide (Pr2O3)]
